Data taken from patent US20260217712A1, “SOLID STATE FORMS OF MNK INHIBITORS” (4E Therapeutics, Inc., priority 2023, published 2026).
≈ marks a conversion by molar mass, not a printed value. Entries after “also recorded” stand apart in the source; their conditions may differ. Like-named read-outs stand apart in the source and are kept apart here.

How the values were obtained:
Assay type in all cases: physicochemical
[1] = XRPD under vacuum; conditions: for XRPD under vacuum: after 30 min under vacuum
Excerpt: (§1) XRPD diffractograms were collected on a PANalytical Empyrean diffractometer using Cu Kα radiation (45 kV, 40 mA, λ=1.544398 Å) in reflection geometry. The instrument was fitted with an Anton Paar CHC plus+ stage fitted with graphite/Kapton windows and equipped with air cooling coupled or a low vacuum pump system using an Edwards RV3 pump. A programmable divergence slit (in automatic mode), with a 10 mm fixed incident beam mask, Ni filter and 0.04 rad Soller slits were used on the incident beam. A PIXcel3D detector, placed on the diffracted beam, was fitted with a programmable anti-scatter slit (in automatic mode) and 0.04 rad Soller slits.
For XRPD under vacuum the samples were prepared and analyzed in an Anton Paar chromed sample holder. The sample temperature was kept constant throughout at 25° C. The measurement parameters are as per the standard screening data collection method (detailed above). An initial measurement was taken before the vacuum was initiated and then subsequently at 10 min intervals. Data collection was stopped after three consecutive scans showing no change.

[2] = Static storage at 40° C./75% RH, XRPD and HPLC post storage; conditions: 7 days
[3] = Thermodynamic solubility in simulated media and buffers; conditions: 25° C./24 h
Method: The thermodynamic solubility for Pattern 11 was determined in 3 simulated media and two buffers. […]

[4] = Gravimetric vapor sorption (GVS) and XRPD post-GVS; conditions: for GVS reversible water uptake 0-90% RH: 25° C.; for Post GVS XRPD form: after double cycle GVS
Method: Sorption isotherms were obtained using a SMS DVS Intrinsic moisture sorption analyzer, controlled by DVS Intrinsic Control software. The sample temperature was maintained at 25° C. by the instrument controls. The humidity was controlled by mixing streams of dry and wet nitrogen, with a total flow rate of 200 mL/min. The relative humidity was measured by a calibrated Rotronic probe (dynamic range of 1.0-100% RH), located near the sample. The weight change, (mass relaxation) of the sample as a function of % RH was constantly monitored by a microbalance (accuracy±0.005 mg).
(§2) Typically, 5-30 mg of sample was placed in a tared mesh stainless steel basket under ambient conditions. The sample was loaded and unloaded at 40% RH and 25° C. (typical room conditions). A moisture sorption isotherm was performed as outlined below (2 scans per complete cycle). The standard isotherm was performed at 25° C. at 10% RH intervals over a 0-90% RH range. Typically, a double cycle (4 scans) was carried out. Data analysis was carried out within Microsoft Excel using the DVS Analysis Suite.
Sorption isotherms were obtained using a Hiden IGASorp moisture sorption analyser, controlled by Isochema HISorp software. The sample temperature was maintained at 25° C. by a Grant LT ecocool 150 re-circulating water bath. The humidity was controlled by mixing streams of dry and wet nitrogen, with a total flow rate of 250 ml·min-1. The relative humidity was measured by a calibrated Vaisala RH probe (dynamic range of 0-95% RH), located near the sample. The weight change, (mass relaxation) of the sample as a function of % RH was constantly monitored by the microbalance (accuracy±0.001 mg).
as §2, with “Typically, 20-30” for “Typically, 5-30”, “scans giving 1” for “scans per”, “within the Isochema HISorp 2019 software and exported into” for “within”, “Excel to present accordingly.” for “Excel using the DVS Analysis Suite.”

[5] = Variable temperature XRPD (VT-XRPD)
Excerpt: as §1
For variable temperature (VT-XRPD) experiments the samples were prepared and analyzed in an Anton Paar chromed sample holder. The sample chamber was under ambient atmosphere and a heating/cooling rate of 10° C./min was used with a 2 min isothermal hold before the measurement started. The measurement parameters are as per the standard screening data collection method (detailed above). Measurements were taken at the following temperatures: 25, 80, 170, 250, and 25° C.

[6] = Single crystal X-ray diffraction
Method: Crystals of Structure (I) Pattern 3 were obtained by evaporation of a THF:water 9:1 solution. A crystal of Structure (I) Pattern 3 of sufficient size and quality for analysis by single crystal X-ray diffraction was isolated from the sample with approximate dimensions 0.15×0.05×0.02 mm.
The single crystal X-ray structure of Structure (I) Pattern 3 was determined at 293(2) K and a summary of the structural data can be found in Table 41. The crystal structure of Structure (I) Pattern 3 was solved in the triclinic space group P-1 with the final R1 [I>2σ(I)]=4.36%. The structure was identified as depicted in FIG. 89 and FIG. 90 and the asymmetric unit found to contain two molecules of Structure (I).

[7] = Static storage at 25° C./97% RH, XRPD and HPLC post storage; conditions: 8 days, listed as Lot B Sample 1

Cc1cc(Nc2cc(N)ncn2)c(=O)n2c1C(=O)NC21CCC2(CC2)CC1 [Pattern 3]
XRPD under vacuum ([1]; listed as Lot B): converted to Pattern 10
XRPD under vacuum ([1]; listed as Lot B Sample 1): Conversion to Pattern 10 after 30 min
XRPD after vacuum released ([1]; vacuum released for 30 min, ambient conditions, listed as Lot B Sample 1): Conversion back to Pattern 3 after
XRPD post storage at 40° C./75% RH ([2]; listed as 9-5): remained unchanged by XRPD; also recorded: Free Form Pattern 3
XRPD post storage at 40° C./75% RH ([2]; listed as Lot B Sample 1): Unchanged by XRPD
Solubility FaSSGF ([3]; FaSSGF, listed as Structure (I) Pattern 3): 26 µg/mL (≈ 71 µM)
Solubility FaSSIF ([3]; FaSSIF, listed as Lot B Sample 2): FaSSIF-0.0016 mg/mL
Solubility FeSSIF ([3]; FeSSIF, listed as Lot B Sample 2): FeSSIF-0.0060 mg/mL
Solubility pH 2.0 ([3]; pH 2.0 buffer, listed as Lot B Sample 2): pH 2.0-0.012 mg/mL
Solubility pH 7.4 ([3]; pH 7.4 buffer): pH 7.4-0.001 mg/mL
hygroscopicity (in words) [4]: hygroscopic
GVS reversible water uptake 0-90% RH [4]: 8.4 wt %
GVS reversible water uptake 0-90% RH ([4]; listed as Lot B Sample 1): 8.4 wt % reversible water uptake
GVS uptake 80-90% RH ([4]; 80-90% RH): 6.3 wt % uptake 80-90% RH
Post GVS XRPD form [4]: the solid form was retained
Post GVS XRPD form ([4]; listed as Lot B Sample 1): Post GVS XRPD: No change in form
hygroscopicity (in words) ([4]; listed as Lot B): hygroscopic
hygroscopicity (in words) ([4]; listed as Lot B Sample 1): Material is hygroscopic
VT-XRPD form at 25-80° C. ([5]; 25-80° C.): 25-80° C.: Pattern 3
VT-XRPD form at 175° C. [5]: Pattern 10 was again observed
VT-XRPD form at 175° C. ([5]; listed as Lot B Sample 1): 175° C.: Pattern 10
VT-XRPD form at 250° C. ([5]; 250° C., listed as Lot B Sample 1): 250° C.: Patterns 10 and 11
VT-XRPD form on cooling to 25° C. ([5]; cooling to 25° C.): Cooling to 25° C.: Patterns 11 and 3
F(000) [6]: 796
Density (calculated) ([6]; 293(2) K): 1.339 Mg/m^3
Unit cell dimensions a ([6]; 293(2) K): a = 10.1823(3) Å Å
Unit cell dimensions b ([6]; 293(2) K): b = 12.1136(4) Å Å
Unit cell dimensions c ([6]; 293(2) K): c = 16.6675(3) Å Å
Unit cell dimensions α ([6]; 293(2) K): α = 72.512(2)°
Unit cell dimensions β ([6]; 293(2) K): β = 79.465(2)°
Unit cell dimensions γ ([6]; 293(2) K): γ = 72.661(3)°
Z ([6]; 293(2) K): 4
Crystal system ([6]; 293(2) K, wavelength 1.54184 Å): Triclinic
Crystal habit ([6]; crystal from THF:Water 9:1, evaporative): Colorless lath
Volume ([6]; unit cell, 293(2) K): 1861.87(10) Å^3
Absorption coefficient ([6]; wavelength 1.54184 Å): 0.756 mm^−1
HPLC purity after storage at 25° C./97% RH (8 days) [7]: 98.5%
XRPD after storage at 25° C./97% RH (8 days) [7]: Unchanged by XRPD
